According to patent US11629121B2, “Benzylideneacetone derivative and use thereof” (KORPHARM CO., LTD., priority 2017, dated 2023):

Assays:
[1] = test system: A549 human lung cancer cell line; experiment: MTT assay, cancer cells A549; type: cell-based; details: for LD63 Cancer cell A549: MTT assay, 48 hours
Text: (§1) The cytotoxicity against normal cells and cancer cells was confirmed using the MTT assay for the novel compounds KP2 to KP8 prepared in Example 1.
(§2) MTT assay method is as follows:
(§3) Normal cells (RAW264.7 rat macrophage cell line (osteoblast progenitor cell) and NIH3T3 mouse fibroblast line) and cancer cells (AGS human gastric cancer cell line, A549 human lung cancer cell line, HepG2 human liver cancer cell line, HCT116 human colon cancer cell line, PC3 human prostate cancer Cell line, Caki-1 human kidney cancer cell line, T24 human bladder cancer cell line, HT1080 human fibrosarcoma cell line, B16F10 mouse melanoma cell line) were cultured in 5% CO2 in 96-well plates containing DMEM with 10% FBS (fetal bovine serum). After incubation, KP2 to KP8 and controls (osmundacetone and 4-hydroxybenzalacetone) were added to the cell medium and incubated for 48 hours. Thereafter, 100 μl of MTT (0.5 mg/mL phosphate buffered saline) was added, followed by incubation for 2 hours. 100 μl of DMSO was added to each well, followed by incubation for 10 minutes, and the absorbance was measured at 550 nm using a microplate reader (SPCTRA MAX 340PC, Molecular Devices, USA). Absorbance is calculated by the formula below as an indicator of the number of cells that survived, and reproducibility was confirmed by three experiments.
(§4) The rate of cell proliferation (%)=OD550(sample)/OD550(control)

[2] = test system: Caki-1 human kidney cancer cell line; experiment: MTT assay, cancer cells Caki-1; type: cell-based; details: 48 hours
Text: as §1, §2, §3, §4

[3] = test system: PC3 human prostate cancer Cell line; experiment: MTT assay, cancer cells PC3; type: cell-based; details: 48 hours
Text: as §1, §2, §3, §4

[4] = test system: HepG2 human liver cancer cell line; experiment: MTT assay, cancer cells HepG2; type: cell-based; details: for cancer cell inhibitory activity versus Osmundacetone: HepG2 hepatocellular carcinoma cells; for LD63 Cancer cell HepG2: MTT assay, 48 hours
Text: as §1, §2, §3, §4

[5] = test system: NIH3T3 mouse fibroblast line; experiment: MTT assay, normal cells NIH3T3; type: cell-based; details: for LD50 Normal cells NTH3T3: mouse, 48 h
Text: as §1, §2, §3, §4

[6] = test system: RAW264.7 rat macrophage cell line; experiment: MTT assay, normal cells RAW264.7; type: cell-based; details: rat, 48 h
Text: as §1, §2, §3, §4

[7] = test system: T24 human bladder cancer cell line; experiment: MTT assay, cancer cells T24; type: cell-based; details: MTT assay, 48 hours, T24
Text: as §1, §2, §3, §4

[8] = test system: B16F10 mouse melanoma cell line; experiment: MTT assay, cancer cells B16F10; type: cell-based; details: 48 hours, H16F10
Text: as §1, §2, §3, §4

[9] = test system: HCT116 human colon cancer cell line; experiment: MTT assay, cancer cells HCT116; type: cell-based; details: for inhibitory activity better than Osmundacetone: HP116 colorectal cancer cells; for LD63 Cancer cell HCT116: MTT assay, 48 hours
Text: as §1, §2, §3, §4

[10] = test system: HT1080 human fibrosarcoma cell line; experiment: MTT assay, cancer cells HT1080; type: cell-based; details: 48 hours
Text: as §1, §2, §3, §4

[11] = test system: AGS human gastric cancer cell line; experiment: MTT assay, cancer cells AGS; type: cell-based; details: 48 hours
Text: as §1, §2, §3, §4

[12] = test system: osteoblasts (mouse MC3T3-E1); experiment: ALP (Alkaline phosphatase) assay, osteoblast activity; type: cell-based; details: for ALP activity / osteoblast activation versus control: 10 μM and 50 μM; for % Activation of ALP activity: MC3T3-E1, 14 days, percentage against control
Description: Effect of KP4 to KP6 on proliferation and differentiation of osteoblast were confirmed using ALP (Alkaline phosphatase) assay, a method for measuring osteoblast activity.
Alkaline phosphatase (ALP), which is present in the cell membranes of osteoblasts, is known as a marker of osteoblast activity and is a regulator of inorganic phosphate transport, cell division or differentiation during calcification. Therefore, ALP activity was measured to determine the effect of the compounds of the present invention on the activity of osteoblasts. ALP activity was indirectly calculated by measuring the amount of p-nitrophenol, which is produced from hydrolysis of p-nitrophenyl phosphate (pNPP, Sigma, St. Louis, Mo., USA) in which ALP act as a catalyst, using a microplate reader at 405 nm wavelength.
Specifically, osteoblasts (mouse MC3T3-E1) were aliquoted into a 96-well plate (3×10^3 cells/100 μL/well) with α-MEM medium containing ascorbic acid (50 μg/mL) and 10 mM β-glycerophosphate, a differentiation factors of osteoblast. Then, KP4 to KP6 of the present invention, and osmundacetone were added at a final concentration of 10 μM and 50 μM, followed by changing medium every 72 hours and incubating for 14 days. After 14 days, the culture medium was removed from each well, washed three times with PBS, lysed with 0.2% Nonidet P-40/10 mmol/L MgCl2, and then treated ultrasonic wave with sosonifier cell disrupter (Model W-380, Heat Systems-Ultrasonics Inc., Farmingdale, N.Y.) for 3 minutes. The cell lysate was centrifuged at 1500 g for 10 minutes and the supernatant was collected to measure ALP activity. To account for changes in ALP activity according to cell number differences, total protein levels were measured using bicinchoninic acid (BCA) protein assay kit with bovine serum albumin as the standard protein, and enzyme activity was expressed as a percentage against the control group without the compound treatment.

[13] = test system: osteoclast differentiation from bone marrow cells (RANKL and M-CSF); experiment: TRAP assay, osteoclast differentiation and proliferation; type: cell-based, C57BL/6 mice; details: Osteoclast; TRAP-positive multinucleated cells, mouse bone marrow cells, 6-7 days; read-out: osteoclast differentiation inhibitory activity IC50
Description: The specific method of the TRAP assay is as follows:
The tibia and femur were aseptically excised from 6 to 8 weeks old male C57BL/6 mice, and bone marrow cells were collected aseptically with a syringe (21G, Korea Green Cross). Bone marrow cells were suspended in 500 μl of -MEM medium (Gibco BRL Co.) containing sodium bicarbonate (2.0 g/L), streptomycin (100 mg/L) and penicillin ([…]), and aliquoted into a 48-well plate, and assay was carried out with triplicate. The progenitor cells of osteoclasts, monocytes, were isolated and treated with RANKL and M-CSF, which are differentiation promoters, to differentiate into osteoclasts within 5-7 days.
1) Sample preparation: KP2 to KP8 (0.5 μM, 1 μM, 5 μM or 10 μM), Fosamax (0.5 μM, 1 μM, 5 μM, or 10 μM) and the like were dissolved in DMSO (dimethylsulfoxide) or sterile distilled water at appropriate concentrations, respectively.
2) Sample administration: The Samples were continuously administered to the medium at 1:20 (v/v; 25 μL of sample per 500 μL of medium) from the first day of culture of bone marrow cells, and the medium was replaced at 3 days intervals.
3) Osteoclast differentiation measurement: Osteoclasts were defined as TRAP-positive multinucleated cells stained with TRAP. […] The reaction reagents were stored in the refrigerator until use.
Bone marrow cells were cultured in a medium containing differentiation factors for 6-7 days, and then the medium was removed, washed with PBS, and fixed in PBS containing 10% formalin for 2-5 minutes. After fixed for 1 minute with a 1:1 mixture of ethanol and acetone, and dried. The fixed cells were treated with TRAP staining solution for 60 minutes at 37° C. with light blocking, washed with PBS, and then stained with Hematoxylin.
Among the TRAP-positive cells in the microscope field, cells with two or more nuclei were determined as osteoclasts and the number of cells was measured.

Row | SMILES | LD63 Cancer cell A549 [1] | LD63 Cancer cell Caki-1 [2] | LD63 Cancer cell PC3 [3] | cancer cell inhibitory activity versus Osmundacetone [4] | LD63 Cancer cell HepG2 [4] | LD50 Normal cells NTH3T3 [5] | LD50 Normal cells RAW264.7 [6] | LD63 Cancer cell T24 [7] | Cytotoxicity, B16F10 cells [8] | inhibitory activity better than Osmundacetone [9] | LD63 Cancer cell HCT116 [9] | LD63 Cancer cell HT1080 [10] | LD63 Cancer cell AGS [11] | ALP activity / osteoblast activation versus control [12] | % Activation of ALP activity ([12]; 10 μM) | % Activation of ALP activity ([12]; 50 μM) | further results
1 | CC(=O)/C=C/c1ccc(C)c(O)c1 [KP2, (E)-4-(3-hydroxy-4-methylphenyl)but-3-en-2-one] | 471 ± 24 µM | 387 ± 57 µM | 309 ± 3.1 µM | significantly better cancer cell inhibitory activity | 339 ± 79 µM | 688 ± 12 µM | 395 ± 22 µM | 1120 ± 67 µM | 298 ± 27 µM | 2 times | 380 ± 32 µM | 256 ± 14 µM | 209 ± 5.9 µM | – | – | – | cancer cell inhibitory activity versus Osmundacetone ([1]; A549 lung cancer cells): significantly better cancer cell inhibitory activity; cytotoxicity to normal cells [5]: weak cytotoxicity
2 | Cc1ccc(/C=C/C(N)=O)cc1O [KP7, (E)-3-(3-hydroxy-4-methylphenyl)acrylamide] | 989 ± 50 µM | 361 ± 16 µM | 394 ± 140 µM | significantly better cancer cell inhibitory activity | 379 ± 38 µM | >5000 µM | >5000 µM | 1040 ± 360 µM | 1210 ± 110 µM | 2 times | 315 ± 19 µM | 309 ± 10 µM | 329 ± 14 µM | – | – | – | –
3 | COc1ccc(/C=C/C(C)=O)cc1O [KP5, (E)-4-(3-hydroxy-4-methoxyphenyl)-3-buten-2-one] | 1890 ± 210 µM | 409 ± 11 µM | 291 ± 5.7 µM | – | – | >5000 µM | 261 ± 79 µM | >5000 µM | 441 ± 58 µM | – | 491 ± 72 µM | 381 ± 49 µM | 181 ± 15 µM | higher ALP activity | 103 ± 1.1% | 175 ± 0.3% | IC50 [13]: 1000 nM
4 | CC(=O)C=Cc1ccc(O)cc1 [4-Hydroxybenzalacetone, reference compound] | – | – | – | – | – | 201 ± 10 µM | 294 ± 45 µM | – | – | – | – | – | – | – | – | – | –
5 | COc1cc(/C=C/C(C)=O)ccc1O [KP4, (E)-4-(4-hydroxy-3-methoxyphenyl)-3-buten-2-one] | 3010 ± 38 µM | 506 ± 13 µM | 223 ± 85 µM | – | – | >5000 µM | 399 ± 42 µM | >5000 µM | 423 ± 39 µM | – | 495 ± 13 µM | >5,000 μM | 417 ± 15 µM | higher ALP activity | 113 ± 2.9% | 422 ± 6.9% | ALP activity increase compared with the control group ([12]; 50 μM): ≥ 400%; osteoblast activity compared to osmundacetone treat group ([12]; 50 μM): 1.5 times
